Assay results reported in patent US10597388B2, “Pyridazinone herbicides” (FMC CORPORATION, priority 2014, dated 2020).

What was measured:
Test in all cases: Test C greenhouse herbicide test, pre- and postemergence
Assay type in all cases: in vivo
[1] = test system: waterhemp (common waterhemp, Amaranthus rudis)
Outline: (§1)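 Visual 0–100 injury score (100 = complete control) taken against untreated controls after 13–15 d in greenhouse. Test chemicals, formulated in solvent plus surfactant, applied preemergence to seeds in loam–sand soil or postemergence to 1- to 4-leaf plants (2–18 cm).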

corn (Zea mays) = test system: corn (Zea mays)
Outline: as §1

soybean (Glycine max) = test system: soybean (Glycine max)
Outline: as §1

[2] = test system: pigweed (Amaranthus retroflexus)
Outline: as §1

[3] = test system: morningglory (Ipomoea coccinea)
Outline: as §1

[4] = test system: velvetleaf (Abutilon theophrasti)
Outline: as §1

[5] = test system: wheat (winter wheat, Triticum aestivum)
Outline: as §1

[6] = test system: crabgrass, large (large crabgrass, Digitaria sanguinalis)
Outline: as §1

[7] = test system: lambsquarters (Chenopodium album)
Outline: as §1

[8] = test system: ryegrass, Italian (Italian ryegrass, Lolium multiflorum)
Outline: as §1

[9] = test system: nutsedge, yellow (yellow nutsedge, Cyperus esculentus)
Outline: as §1

[10] = test system: galium (catchweed bedstraw, Galium aparine)
Outline: as §1

[11] = test system: oilseed rape (Brassica napus)
Outline: as §1

[12] = test system: blackgrass (Alopecurus myosuroides)
Outline: as §1

[13] = test system: foxtail, giant (giant foxtail, Setaria faberii); settings: Postemergence
Outline: as §1

[14] = test system: johnsongrass (Sorghum halepense)
Outline: as §1

[15] = Postemergence, 31 g ai/ha, scale 0 to 100 (0 no effect, 100 complete control)
[16] = Postemergence, 125 g ai/ha, scale 0 to 100, 0 is no effect, 100 is complete control
[17] = Postemergence, 250 g ai/ha, scale 0 to 100, 0 no effect, 100 complete control, 13 to 15 d
[18] = Preemergence, 31 g ai/ha, scale 0 to 100, 0 is no effect, 100 is complete control
[19] = Preemergence, 62 g ai/ha, scale 0 to 100, 0 is no effect, 100 is complete control
[20] = Preemergence, 125 g ai/ha, scale 0 to 100, 0 is no effect, 100 is complete control
[21] = Preemergence, 250 g ai/ha, scale 0 to 100 (0 no effect, 100 complete control)
[22] = postemergence, 62 g ai/ha, scale 0 to 100, 0 no effect, 100 complete control

CCC(=O)Oc1c(Cl)nn(C)c(=O)c1-c1c(C)sc2ccc(Cl)cc12 [Compound 111]
Plant response rating, Waterhemp [1, 15]: 40 | Plant response rating, Waterhemp [1, 16]: 55 | Plant response rating, Waterhemp [1, 17]: 70 | Plant response rating, Waterhemp [1, 18]: 50 | Plant response rating, Waterhemp [1, 19]: 65 | Plant response rating, Waterhemp [1, 20]: 75 | Waterhemp plant response rating [1, 21]: 85 | Plant response rating, Corn (corn (Zea mays); [15]): 5 | Plant response rating, Corn (corn (Zea mays); [16]): 15 | Plant response rating, Corn (corn (Zea mays); [17]): 10 | Plant response rating, Corn (corn (Zea mays); [18]): 0 | Plant response rating, Corn (corn (Zea mays); [19]): 0 | Plant response rating, Corn (corn (Zea mays); [20]): 0 | Corn plant response rating (corn (Zea mays); [21]): 15 | Corn plant response rating (corn (Zea mays); [22]): 10 | Plant response rating, Soybean (soybean (Glycine max); [15]): 0 | Plant response rating, Soybean (soybean (Glycine max); [16]): 5 | Plant response rating, Soybean (soybean (Glycine max); [17]): 10 | Plant response rating, Soybean (soybean (Glycine max); [20]): 0 | Soybean plant response rating (soybean (Glycine max); [21]): 0 | Plant response rating, Pigweed [2, 15]: 85 | Plant response rating, Pigweed [2, 16]: 90 | Plant response rating, Pigweed [2, 17]: 98 | Plant response rating, Pigweed [2, 18]: 98 | Plant response rating, Pigweed [2, 19]: 90 | Plant response rating, Pigweed [2, 20]: 98 | Pigweed plant response rating [2, 21]: 100 | Plant response rating, Morningglory [3, 15]: 100 | Plant response rating, Morningglory [3, 16]: 100 | Plant response rating, Morningglory [3, 17]: 100 | Plant response rating, Morningglory [3, 18]: 50 | Plant response rating, Morningglory [3, 19]: 70 | Plant response rating, Morningglory [3, 20]: 95 | Morningglory plant response rating [3, 21]: 98 | Plant response rating, Velvetleaf [4, 15]: 40 | Plant response rating, Velvetleaf [4, 16]: 98 | Plant response rating, Velvetleaf [4, 17]: 90 | Plant response rating, Velvetleaf [4, 18]: 65 | Plant response rating, Velvetleaf [4, 19]: 70 | Plant response rating, Velvetleaf [4, 20]: 95 | Velvetleaf plant response rating [4, 21]: 100 | Plant response rating, Wheat [5, 15]: 10 | Plant response rating, Wheat [5, 16]: 15 | Plant response rating, Wheat [5, 17]: 25 | Plant response rating, Wheat [5, 18]: 0 | Plant response rating, Wheat [5, 19]: 5 | Plant response rating, Wheat [5, 20]: 20 | Wheat plant response rating [5, 21]: 40 | Plant response rating, Crabgrass, Large [6, 15]: 10 | Plant response rating, Crabgrass, Large [6, 16]: 25 | Plant response rating, Crabgrass, Large [6, 17]: 25 | Plant response rating, Crabgrass, Large [6, 18]: 5 | Plant response rating, Crabgrass, Large [6, 19]: 5 | Plant response rating, Crabgrass, Large [6, 20]: 85 | Crabgrass, Large plant response rating [6, 21]: 80 | Crabgrass, Large plant response rating [6, 22]: 20 | Plant response rating, Lambsquarters [7, 15]: 90 | Plant response rating, Lambsquarters [7, 16]: 100 | Plant response rating, Lambsquarters [7, 17]: 100 | Plant response rating, Lambsquarters [7, 18]: 90 | Plant response rating, Lambsquarters [7, 19]: 95 | Plant response rating, Lambsquarters [7, 20]: 90 | Lambsquarters plant response rating [7, 21]: 95 | Plant response rating, Ryegrass, Italian [8, 15]: 85 | Plant response rating, Ryegrass, Italian [8, 16]: 95 | Plant response rating, Ryegrass, Italian [8, 17]: 95 | Plant response rating, Ryegrass, Italian [8, 18]: 10 | Plant response rating, Ryegrass, Italian [8, 19]: 90 | Plant response rating, Ryegrass, Italian [8, 20]: 85 | Ryegrass, Italian plant response rating [8, 21]: 95 | Plant response rating, Nutsedge, Yellow [9, 15]: 35 | Plant response rating, Nutsedge, Yellow [9, 16]: 65 | Plant response rating, Nutsedge, Yellow [9, 17]: 75 | Plant response rating, Nutsedge, Yellow [9, 18]: 0 | Plant response rating, Nutsedge, Yellow [9, 19]: 20 | Plant response rating, Nutsedge, Yellow [9, 20]: 75 | Nutsedge, Yellow plant response rating [9, 21]: 90 | Plant response rating, Galium [10, 15]: 95 | Plant response rating, Galium [10, 16]: 95 | Plant response rating, Galium [10, 17]: 95 | Plant response rating, Galium [10, 18]: 80 | Plant response rating, Galium [10, 19]: 80 | Plant response rating, Galium [10, 20]: 100 | Galium plant response rating [10, 21]: 100 | Plant response rating, Oilseed Rape [11, 15]: 80 | Plant response rating, Oilseed Rape [11, 16]: 95 | Plant response rating, Oilseed Rape [11, 17]: 100 | Plant response rating, Oilseed Rape [11, 18]: 0 | Plant response rating, Oilseed Rape [11, 19]: 98 | Plant response rating, Oilseed Rape [11, 20]: 100 | Oilseed Rape plant response rating [11, 21]: 100 | Plant response rating, Blackgrass [12, 15]: 0 | Plant response rating, Blackgrass [12, 16]: 20 | Plant response rating, Blackgrass [12, 17]: 35 | Plant response rating, Blackgrass [12, 18]: 0 | Plant response rating, Blackgrass [12, 19]: 5 | Plant response rating, Blackgrass [12, 20]: 5 | Blackgrass plant response rating [12, 21]: 20 | Blackgrass plant response rating [12, 22]: 5 | Plant response rating, Foxtail, Giant ([13]; 31 g ai/ha, scale 0 to 100 (0 no effect, 100 complete control)): 15 | Plant response rating, Foxtail, Giant ([13]; 125 g ai/ha, scale 0 to 100, 0 is no effect, 100 is complete control): 70 | Plant response rating, Foxtail, Giant ([13]; 250 g ai/ha, scale 0 to 100, 0 no effect, 100 complete control, 13 to 15 d): 85 | Plant response rating, Johnsongrass [14, 15]: 10 | Plant response rating, Johnsongrass [14, 16]: 15 | Plant response rating, Johnsongrass [14, 17]: 10 | Plant response rating, Johnsongrass [14, 18]: 0 | Plant response rating, Johnsongrass [14, 19]: 0 | Plant response rating, Johnsongrass [14, 20]: 0 | Johnsongrass plant response rating [14, 21]: 20
